The source of these data is patent US20200338084A1, “INHIBITORS OF LOW MOLECULAR WEIGHT PROTEIN TYROSINE PHOSPHATASE (LMPTP) AND USES THEREOF” (Sanford Burnham Prebys Medical Discovery Institute, priority 2018, published 2020).

Some results are limits rather than exact numbers.

This experiment concerns the target T1, human LMPTP-A (Homo sapiens, UniProt P24666).
T1 sequence (P24666 1-158): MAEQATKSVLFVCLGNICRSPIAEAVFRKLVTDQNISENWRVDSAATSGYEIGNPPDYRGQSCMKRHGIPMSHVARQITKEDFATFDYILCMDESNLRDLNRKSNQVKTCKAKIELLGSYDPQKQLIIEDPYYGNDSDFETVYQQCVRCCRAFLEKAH
Briefly: Enzyme Assay of Inhibition of LMPTP-A. It counts as biochemical. To be noted: phosphatase assay, OMFP or pNPP substrate, 50 mM Bis-Tris pH 6.0, 37° C. The procedure: Phosphatase assays were performed in buffer containing 50 mM Bis-Tris, pH 6.0, 1 mM DTT and 0.01% Triton X-100 at 37° C. For assays conducted with 3-O-methylfluorescein phosphate (OMFP) as substrate, fluorescence was monitored continuously at λex=485 and λem=525 nm. For assays conducted with para-nitrophenylphosphate (pNPP) as substrate, the reaction was stopped by addition of 2× reaction volume of 1 M NaOH, and absorbance was measured at 405 nm. IC50 values of compounds disclosed herein were determined from plots of inhibitor concentration versus percentage of enzyme activity. For inhibitor selectivity assays, each PTP was incubated with either 0.4 mM OMFP or 5 mM pNPP in the presence of 40 μM compound or DMSO. […] For the inhibitor reversibility assay, 50 nM human LMPTP-A was pre-incubated with 10 μM of compound disclosed herein or DMSO for 5 min. The enzyme was diluted 100× in phosphatase assay buffer containing 0.4 mM OMFP and fluorescence was measured at the indicated time points.
Consider `Cc1noc(C)c1-c1nc2c(N)ncn(Cc3c(Cl)cccc3Cl)c-2n1` [3-(2,6-dichlorobenzyl)-8-(3,5-dimethylisoxazol-4-yl)-3H-purin-6-amine], for which the concentration for half-maximal inhibition (IC50) was ≤ 1000 nM. To `Fc1ccc(CNc2ncn(Cc3c(Cl)cccc3Cl)c3ncnc2-3)cc1` [[3-(2,6-Dichloro-benzyl)-3H-purin-6-yl]-(4-fluoro-benzyl)-amine] belongs 1000 to 20000 nM; to `Fc1cccc(Nc2ncn(Cc3c(Cl)cccc3Cl)c3ncnc2-3)c1` [{3-[(2,6-Dichlorophenyl)methyl](3-hydropurin-6-yl)}(3-fluorophenyl)amine], 1000 to 20000 nM. `Clc1cccc(Cl)c1Cn1cnc(NCc2ccccn2)c2ncnc1-2` [[3-(2,6-Dichloro-benzyl)-3H-purin-6-yl]-pyridin-2-ylmethyl-amine] had an IC50 of 1000 to 20000 nM.

`Nc1ncn(Cc2c(Cl)cccc2Cl)c2nc(-c3ccc(F)cc3F)nc1-2` [3-[(2,6-dichlorophenyl)methyl]-8-(2,4-difluorophenyl)-3-hydropurine-6-ylamine]: the IC50 is ≤ 1000 nM.

In the case of `Nc1ncn(Cc2c(Cl)cccc2Cl)c2nc(-c3ccccc3)nc1-2` [3-[(2,6-Dichlorophenyl)methyl]-8-phenyl-3-hydropurine-6-ylamine], the IC50 is ≤ 1000 nM. On to `Clc1ccc(Cl)c(Cn2cnc(NCc3ccco3)c3ncnc2-3)c1` [[3-(2,5-Dichloro-benzyl)-3H-purin-6-yl]-furan-2-ylmethyl-amine], for which the IC50 lay in the range of 1000 to 20000 nM. Then `FC(F)Oc1ccc(Nc2ncn(Cc3c(Cl)cccc3Cl)c3ncnc2-3)cc1` [3-(2,6-Dichlorobenzyl)-N-(4-(difluoromethoxy)phenyl)-3H-purin-6-amine], with 1000 to 20000 nM; and `COc1ccccc1Cn1cnc(NCc2ccco2)c2ncnc1-2` [Furan-2-ylmethyl-[3-(2-methoxy-benzyl)-3H-purin-6-yl]-amine], with ≥ 20000 nM. As for `Cc1c(Cl)cccc1Nc1ncn(Cc2c(Cl)cccc2Cl)c2ncnc1-2` [N-(3-Chloro-2-methylphenyl)-3-(2,6-dichlorobenzyl)-3H-purin-6-amine], the IC50 was 1000 to 20000 nM. Turning to `O=C(Nc1ncn(Cc2c(Cl)cccc2Cl)c2ncnc1-2)c1ccccn1` [Pyridine-2-carboxylic acid [3-(2,6-dichloro-benzyl)-3H-purin-6-yl]-amide], the IC50 is 1000 to 20000 nM. Then `Cc1nc2c(N)ncn(Cc3c(Cl)cccc3Cl)c-2n1` [3-[(2,6-Dichlorophenyl)methyl]-8-methyl-3-hydropurine-6-ylamine], with ≤ 1000 nM; and `Fc1ccccc1Cn1cnc(NCc2ccco2)c2ncnc1-2` [[3-(2-Fluoro-benzyl)-3H-purin-6-yl]-furan-2-ylmethyl-amine], with ≥ 20000 nM.

As for `Cc1ccccc1Cn1cnc(N)c2ncnc1-2` [3-(2-Methyl-benzyl)-3H-purin-6-ylamine], the IC50 was in the range of 1000 to 20000 nM. For `COc1ccc(CNc2ncn(Cc3c(Cl)cccc3Cl)c3ncnc2-3)c(OC)c1` [3-(2,6-dichlorobenzyl)-N-(2,4-dimethoxybenzyl)-3H-purin-6-amine], the IC50 was in the range of 1000 to 20000 nM. `Nc1ncn(Cc2c(Cl)cccc2Cl)c2nc(-c3ccccc3F)nc1-2` [3-[(2,6-Dichlorophenyl)methyl]-8-(2-fluorophenyl)-3-hydropurine-6-ylamine]: the IC50 is ≤ 1000 nM. Compound `Nc1ncn(Cc2c(Br)ccnc2Cl)c2ncnc1-2` [3-[(4-bromo-2-chloro-3-pyridyl)methyl]-3-hydropurine-6-ylamine] gave an IC50 of 1000 to 20000 nM. With `Clc1cccc(Nc2ncn(Cc3c(Cl)cccc3Cl)c3ncnc2-3)c1Cl` [(2,3-Dichlorophenyl){3-[(2,6-dichlorophenyl)methyl](3-hydropurin-6-yl)}amine], the IC50 is 1000 to 20000 nM.

Compound `FC(F)(F)c1cccc(Nc2ncn(Cc3c(Cl)cccc3Cl)c3ncnc2-3)c1` [3-(2,6-dichlorobenzyl)-N-(3-(trifluoromethyl)phenyl)-3H-purin-6-amine] returned an IC50 of 1000 to 20000 nM. As for `Clc1cccc(Cl)c1Cn1cnc(NCCN2CCCCC2)c2ncnc1-2` [{3-[(2,6-Dichlorophenyl)methyl](3-hydropurin-6-yl)}(2-piperidylethyl)amine], the IC50 was ≥ 20000 nM. Regarding `Clc1cccc(Cl)c1Cn1cnc(N2CCCC2)c2ncnc1-2` [3-(2,6-Dichloro-benzyl)-6-pyrrolidin-1-yl-3H-purine], the IC50 was ≥ 20000 nM.

In the case of `N#Cc1ccc(Cn2cnc(N)c3ncnc2-3)cc1` [4-((6-amino-3H-purin-3-yl)methyl)benzonitrile], the IC50 fell in the range of 1000 to 20000 nM. As for `Cc1cccc(Nc2ncn(Cc3c(Cl)cccc3Cl)c3ncnc2-3)c1` [{3-[(2,6-Dichlorophenyl)methyl](3-hydropurin-6-yl)}(3-methylphenyl)amine], the IC50 fell in the range of 1000 to 20000 nM.

For the compound `COc1ccccc1Nc1ncn(Cc2c(Cl)cccc2Cl)c2ncnc1-2` [{3-[(2,6-Dichlorophenyl)methyl](3-hydropurin-6-yl)}(2-methoxyphenyl)amine], the IC50 was 1000 to 20000 nM. On to `Nc1ncn(Cc2c(Cl)cccc2Cl)c2nc(-c3cccc(Cl)n3)nc1-2` [3-[(2,6-Dichlorophenyl)methyl]-8-(6-chloro(2-pyridyl))-3-hydropurine-6-ylamine], for which the IC50 is ≤ 1000 nM. Then `Nc1ncn(Cc2c(Cl)cccc2Cl)c2nc(-c3cccs3)nc1-2` [3-[(2,6-Dichlorophenyl)methyl]-8-(2-thienyl)-3-hydropurine-6-ylamine], with ≤ 1000 nM; and `Cc1ccc(Cn2cnc(N)c3ncnc2-3)cc1` [3-(4-Methyl-benzyl)-3H-purin-6-ylamine], with ≥ 20000 nM. The compound `Clc1cccc(Cl)c1Cn1cnc(Nc2ccccc2)c2ncnc1-2` [{3-[(2,6-Dichlorophenyl)methyl](3-hydropurin-6-yl)}phenylamine] gave an IC50 of 1000 to 20000 nM. `CCCNc1ncn(Cc2c(Cl)cccc2Cl)c2ncnc1-2` [[3-(2,6-Dichloro-benzyl)-3H-purin-6-yl]-propyl-amine] yielded an IC50 of 1000 to 20000 nM.

Consider `Nc1ncn(Cc2ccccc2Br)c2ncnc1-2` [3-(2-Bromo-benzyl)-3H-purin-6-ylamine], for which the IC50 fell in the range of 1000 to 20000 nM. To `Clc1cccc(Cl)c1Cn1cnc(Nc2cccc(OCc3ccccc3)c2)c2ncnc1-2` [N-(3-(benzyloxy)phenyl)-3-(2,6-dichlorobenzyl)-3H-purin-6-amine] belongs 1000 to 20000 nM; to `Nc1ncn(Cc2c(Cl)cccc2Cl)c2nc(C3CCS(=O)(=O)CC3)nc1-2` [4-{6-Amino-3-[(2,6-dichlorophenyl)methyl]-3-hydropurin-8-yl}thiane-1,1-dione], ≤ 1000 nM. With `Nc1ncn(Cc2c(Cl)cccc2Cl)c2nc(-c3ccc(F)cc3)nc1-2` [3-[(2,6-Dichlorophenyl)methyl]-8-(4-fluorophenyl)-3-hydropurine-6-ylamine], the IC50 is ≤ 1000 nM.

For the compound `Oc1ccc(Nc2ncn(Cc3c(Cl)cccc3Cl)c3ncnc2-3)cc1` [4-({3-[(2,6-Dichlorophenyl)methyl]-3-hydropurin-6-yl}amino)phenol], the IC50 was in the range of 1000 to 20000 nM. Then `OCCNc1ncn(Cc2c(Cl)cccc2Cl)c2ncnc1-2` [2-[3-(2,6-Dichloro-benzyl)-3H-purin-6-ylamino]-ethanol], with 1000 to 20000 nM; and `Nc1ncn(Cc2c(Cl)cccc2Cl)c2nc(C3=CCNCC3)nc1-2` [3-(2,6-Dichloro-benzyl)-8-(1,2,3,6-tetrahydro-pyridin-4-yl)-3H-purin-6-ylamine], with ≤ 1000 nM. As for `Nc1ncn(Cc2c(Cl)ccnc2F)c2ncnc1-2` [3-[(4-chloro-2-fluoro-3-pyridyl)methyl]-3-hydropurine-6-ylamine], the IC50 lay within 1000 to 20000 nM. Then `N#Cc1cccc(Nc2ncn(Cc3c(Cl)cccc3Cl)c3ncnc2-3)c1` [3-({3-[(2,6-Dichlorophenyl)methyl]-3-hydropurin-6-yl}amino)benzenecarbonitrile], with ≥ 20000 nM; and `COc1ccc(CNc2ncn(Cc3c(Cl)cccc3Cl)c3ncnc2-3)cc1` [{3-[(2,6-dichlorophenyl)methyl](3-hydropurin-6-yl)}[(4-methoxyphenyl)methyl]amine], with 1000 to 20000 nM; and `Nc1ncn(Cc2c(Cl)cccc2Cl)c2nc(-c3ccc4ocnc4c3)nc1-2` [8-Benzoxazol-5-yl-3-[(2,6-dichlorophenyl)methyl]-3-hydropurine-6-ylamine], with ≤ 1000 nM. In turn, `O=C(Nc1ncn(Cc2c(Cl)cccc2Cl)c2ncnc1-2)c1ccco1` [Furan-2-carboxylicacid [3-(2,6-dichloro-benzyl)-3H-purin-6-yl]-amide] showed an IC50 of 1000 to 20000 nM.

For `Nc1ncn(Cc2c(Cl)cccc2Cl)c2nc(-c3ccoc3)nc1-2` [3-[(2,6-Dichlorophenyl)methyl]-8-(3-furyl)-3-hydropurine-6-ylamine], the IC50 is ≤ 1000 nM. To `CN(C)c1ccc(Nc2ncn(Cc3c(Cl)cccc3Cl)c3ncnc2-3)cc1` [N1-(3-(2,6-dichlorobenzyl)-3H-purin-6-yl)-N4,N4-dimethylbenzene-1,4-diamine] belongs 1000 to 20000 nM. To `FC(F)Oc1ccccc1Nc1ncn(Cc2c(Cl)cccc2Cl)c2ncnc1-2` [3-(2,6-dichlorobenzyl)-N-(2-(difluoromethoxy)plienyl)-3H-purin-6-amine] belongs 1000 to 20000 nM. To `CC(c1ccccc1)c1nc2c(N)ncn(Cc3c(Cl)cccc3Cl)c-2n1` (stereo not shown) [3-[(2,6-Dichlorophenyl)methyl]-8-(phenylethyl)-3-hydropurine-6-ylamine] belongs ≤ 1000 nM. Regarding `Nc1ncn(Cc2ccc3ccccc3n2)c2ncnc1-2` [3-(quinolin-2-ylmethyl)-3H-purin-6-amine], the half-maximal inhibitory concentration (IC50) was 1000 to 20000 nM.
